Measured values: PubChem BioAssay (NCI)
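1) Cells in 96-well plates. 2) Compound, 48 h, 5 concentrations. 3) Linear interpolation between surrounding doses. 4) Unreached endpoint = highest concentration. TGI: total growth inhibition.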

What was measured:
Test in all cases: inhibition of tumour cell growth, NCI panel, 48 h
[1] = tested on: HCT-116 colon
[2] = tested on: OVCAR-8 ovarian
[3] = tested on: U251 CNS
[4] = tested on: MDA-MB-231 breast
[5] = tested on: SK-OV-3 ovarian
[6] = tested on: MOLT-4 leukemia
[7] = tested on: HOP-62 NSCLC
[8] = tested on: SN12C renal
[9] = tested on: COLO 205 colon
[10] = tested on: HCC-2998 colon
[11] = tested on: TK-10 renal
[12] = tested on: HOP-92 NSCLC
[13] = tested on: KM12 colon
[14] = tested on: RPMI-8226 leukemia
[15] = tested on: CAKI-1 renal
[16] = tested on: UACC-62 melanoma
[17] = tested on: A498 renal
[18] = tested on: DU-145 prostate
[19] = tested on: UACC-257 melanoma

| SMILES | TGI [1] | TGI [2] | TGI [3] | TGI [4] | TGI [5] | TGI [6] | TGI [7] | TGI [8] | TGI [9] | TGI [10] | TGI [11] | TGI [12] | TGI [13] | TGI [14] | TGI [15] | TGI [16] | TGI [17] | TGI [18] | TGI [19] |
| --- | --- | --- | --- | --- | --- | --- | --- | --- | --- | --- | --- | --- | --- | --- | --- | --- | --- | --- | --- |
| c1cc(-c2csc(-c3ccsc3)c2)cs1 | > 100 µM | > 100 µM | > 100 µM | > 100 µM | > 100 µM | > 100 µM | > 100 µM | > 100 µM | > 100 µM | > 100 µM | > 100 µM | > 100 µM | > 100 µM | > 100 µM | > 100 µM | > 100 µM | > 100 µM | > 100 µM | > 100 µM |
| COC(=O)C1=C(OC(=O)/C(=C/c2ccc(Cl)cc2Cl)c2ccc(Cl)cc2Cl)C(C(=O)OC)[C@@]2(O)[C@@H](C(=O)OC)[C@H](C)C[C@@H]1[C@@H]2C(=O)OC (stereo not given in full) | > 100 µM | > 100 µM | > 100 µM | > 100 µM | > 100 µM | > 100 µM | > 100 µM | > 100 µM | > 100 µM | > 100 µM | > 100 µM | > 100 µM | > 100 µM | > 100 µM | > 100 µM | > 100 µM | > 100 µM | > 100 µM | > 100 µM |
| NCC[Se][Se]CCN | 15.3 µM | 38.1 µM | 24.1 µM | 25.7 µM | 25.8 µM | > 100 µM | 21.3 µM | 21.5 µM | 14.6 µM | 24.9 µM | 30.7 µM | 35.8 µM | 20.6 µM | > 100 µM | 22.8 µM | 31.1 µM | 23.8 µM | 26.4 µM | 20.4 µM |
| CC(C)(N)CO[C@H]1C[C@H]2CC[C@@]1(C)C2(C)C | 29.8 µM | 53.1 µM | 36.4 µM | 36.5 µM | > 100 µM | 80.9 µM | 44 µM | > 100 µM | 35.2 µM | 5.23 µM | 40 µM | 49.1 µM | 34 µM | 40.7 µM | 70.6 µM | 34.3 µM | 82.1 µM | 73.8 µM | 34.7 µM |
| COC(=O)c1ccccc1/C=C1/Cc2cccc(C)c2C1=O | > 100 µM | > 100 µM | > 100 µM | > 100 µM | > 100 µM | > 100 µM | > 100 µM | > 100 µM | > 100 µM | > 100 µM | > 100 µM | > 100 µM | > 100 µM | > 100 µM | > 100 µM | > 100 µM | > 100 µM | > 100 µM | > 100 µM |
| CO[C@H]1O[C@@H]2CO[C@@H](c3ccccc3)O[C@H]2[C@@H]2CC=CCC[C@]12O | > 100 µM | > 100 µM | > 100 µM | > 100 µM | > 100 µM | 73.3 µM | > 100 µM | > 100 µM | > 100 µM | 51.7 µM | > 100 µM | > 100 µM | > 100 µM | 90.1 µM | > 100 µM | > 100 µM | 92.7 µM | > 100 µM | > 100 µM |
| C=C1CC(Cn2ccc(=O)[nH]c2=O)(c2ccc(-c3ccccc3)cc2)OC1=O (stereo not given) | 0.892 µM | 11.1 µM | 25 µM | 5.8 µM | 21.1 µM | 5.26 µM | 40.2 µM | 21.3 µM | 0.338 µM | 4.12 µM | 2.32 µM | 2.62 µM | 12.9 µM | 1.29 µM | 2.7 µM | 1.88 µM | 16.1 µM | 2.88 µM | 3.88 µM |
| CCOC(=O)N1CCN(c2c(C)nc(C)[nH]c2=O)CC1 | > 100 µM | > 100 µM | > 100 µM | > 100 µM | > 100 µM | > 100 µM | > 100 µM | > 100 µM | > 100 µM | > 100 µM | > 100 µM | > 100 µM | > 100 µM | > 100 µM | > 100 µM | > 100 µM | > 100 µM | > 100 µM | > 100 µM |
| CCC(C)C(C(=O)N/N=C1/SCC(=O)N1C)C(=O)N/N=C1/SCC(=O)N1C (stereo not given) | > 100 µM | > 100 µM | > 100 µM | > 100 µM | > 100 µM | > 100 µM | > 100 µM | > 100 µM | > 100 µM | > 100 µM | > 100 µM | > 100 µM | > 100 µM | > 100 µM | > 100 µM | > 100 µM | > 100 µM | > 100 µM | > 100 µM |
| C[n+]1noc(/N=N\[O-])c1-c1cc(-c2c(/N=N\[O-])on[n+]2C)cc(-c2c(/N=N/[O-])on[n+]2C)c1 | > 100 µM | > 100 µM | > 100 µM | > 100 µM | > 100 µM | > 100 µM | > 100 µM | > 100 µM | > 100 µM | > 100 µM | > 100 µM | > 100 µM | > 100 µM | > 100 µM | > 100 µM | > 100 µM | > 100 µM | > 100 µM | > 100 µM |
